Reference: PMC6325200, “Effects of Microplate Type and Broth Additives on Microdilution MIC Susceptibility Assays” (Antimicrobial Agents and Chemotherapy, 2018)

Assays:
E. coli ATCC 25922 = assay: microbe, parasite or virus in culture; conditions: n = 2
Method: A positive control of a row of just the bacteria and a negative control of only the medium were included for every plate tested.
The compounds along with standard antibiotics were serially diluted 2-fold across the 96-well plates. […] A sample of each culture was then diluted 40-fold in fresh MH broth (in presence and absence of Tween) and incubated at 37°C for 2 to 3 h.
For experiments in the presence of surfactant, 2% beractant (25 mg/ml) was added to the mid-log-phase cultures and mixed gently and added to all the 96-well plates. For experiments in the presence of serum, a mixture of 50% of human serum along with 50% MHB was prepared and used throughout the experiment.

E. coli = conditions: literature value; cited from earlier work
A. baumannii ATCC 19606 = assay: microbe, parasite or virus in culture; conditions: Acinetobacter baumannii, n = 2
Procedure, shortened: (§1)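 MH broth with or without Tween received a 40-fold dilution of each culture, held at 37°C for 2–3 h. Twofold dilution series of the compounds and standard antibiotics are run in 96-well plates.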

P. aeruginosa ATCC 10145 = assay: microbe, parasite or virus in culture; conditions: Pseudomonas aeruginosa, n = 2
Procedure, shortened: as §1

K. pneumoniae ATCC 13883 = assay: microbe, parasite or virus in culture; conditions: Klebsiella pneumoniae, n = 2
Procedure, shortened: as §1

COc1cc(Cc2cnc(N)nc2N)cc(OC)c1OC [Trimethoprim, trimethoprim]
0.5 to 1 mg/L: MIC (E. coli ATCC 25922; Corning TC plate, MHB +0.002% T80, no further additive) | MIC (E. coli ATCC 25922; Escherichia coli, ATCC25922, 24 h, Trek PS, MH + 2% LHB, 2% LS) | MIC (E. coli ATCC 25922; Escherichia coli, ATCC25922, Corning TC plate, MHB +0.002% T80, no further additive) | MIC (E. coli ATCC 25922; Escherichia coli, ATCC25922, Corning TC, MH, 50% HS) | MIC (E. coli ATCC 25922; Escherichia coli, ATCC25922, Trek PS plate, MHB −T80, no additive) | MIC (E. coli ATCC 25922; Trek PS plate, MHB −T80, no additive)
32 to 64 mg/L: MIC (A. baumannii ATCC 19606; ATCC19606, Corning TC, MHB +T80)
0.25 to 0.5 mg/L: MIC (E. coli ATCC 25922; Corning NBS plate, MHB −T80, no additive) | MIC (E. coli ATCC 25922; Corning PS plate, MHB −T80, no additive) | MIC (E. coli ATCC 25922; Corning TC plate, MHB −T80, no additive) | MIC (E. coli ATCC 25922; Escherichia coli, ATCC25922, Corning NBS plate, MHB −T80, no additive) | MIC (E. coli ATCC 25922; Escherichia coli, ATCC25922, Corning PS plate, MHB −T80, no additive) | MIC (E. coli ATCC 25922; Escherichia coli, ATCC25922, Corning TC plate, MHB −T80, no additive) | MIC (E. coli ATCC 25922; Escherichia coli, ATCC25922, Nunc PS plate, MHB +0.002% T80) | MIC (E. coli ATCC 25922; Escherichia coli, ATCC25922, Nunc U TC plate, MHB +0.002% T80) | MIC (E. coli ATCC 25922; Escherichia coli, ATCC25922, Nunc U TC plate, MHB −T80) | MIC (E. coli ATCC 25922; Escherichia coli, ATCC25922, Nunc flat TC plate, MHB +0.002% T80) | MIC (E. coli ATCC 25922; Escherichia coli, ATCC25922, Nunc flat TC plate, MHB −T80)
16 to 32 mg/L: MIC (A. baumannii ATCC 19606; ATCC19606, Corning NBS, MHB -T80) | MIC (A. baumannii ATCC 19606; ATCC19606, Corning TC, MHB -T80)
4 to 8 mg/L: MIC (K. pneumoniae ATCC 13883; ATCC13883, Corning NBS, MHB -T80)
1 to 4 mg/L: MIC (E. coli ATCC 25922; Escherichia coli, ATCC25922, Trek PS, MH, 2% LS)
0.25 mg/L: MIC (E. coli ATCC 25922; Escherichia coli, ATCC25922, Nunc PS plate, MHB −T80)
64 mg/L: MIC (A. baumannii ATCC 19606; ATCC19606, Corning NBS, MHB +T80)
4 to 16 mg/L: MIC (K. pneumoniae ATCC 13883; ATCC13883, Corning TC, MHB +T80) | MIC (K. pneumoniae ATCC 13883; ATCC13883, Corning TC, MHB -T80)
1 to 8 mg/L: MIC (E. coli ATCC 25922; Escherichia coli, ATCC25922, 24 h, Corning PS, MH + 2% LHB, 50% HS) | MIC (K. pneumoniae ATCC 13883; ATCC13883, Corning PS, MHB -T80)
1 to 2 mg/L: MIC (E. coli ATCC 25922; Corning PS plate, MHB +0.002% T80, no further additive) | MIC (E. coli ATCC 25922; Escherichia coli, ATCC25922, 24 h, Corning NBS, MH + 2% LHB, 50% HS) | MIC (E. coli ATCC 25922; Escherichia coli, ATCC25922, 24 h, Corning PS, MH + 2% LHB, 2% LS) | MIC (E. coli ATCC 25922; Escherichia coli, ATCC25922, 24 h, Corning PS, MH + 2% LHB, no additive) | MIC (E. coli ATCC 25922; Escherichia coli, ATCC25922, 24 h, Corning PS, MH + T80, 2% LS) | MIC (E. coli ATCC 25922; Escherichia coli, ATCC25922, 24 h, Corning PS, MH + T80, 50% HS) | MIC (E. coli ATCC 25922; Escherichia coli, ATCC25922, 24 h, Corning TC, MH + 2% LHB, 2% LS) | MIC (E. coli ATCC 25922; Escherichia coli, ATCC25922, 24 h, Corning TC, MH + 2% LHB, 50% HS) | MIC (E. coli ATCC 25922; Escherichia coli, ATCC25922, 24 h, Corning TC, MH + T80, 2% LS) | MIC (E. coli ATCC 25922; Escherichia coli, ATCC25922, 24 h, Corning TC, MH + T80, 50% HS) | MIC (E. coli ATCC 25922; Escherichia coli, ATCC25922, Corning NBS, MH, 2% LS) | MIC (E. coli ATCC 25922; Escherichia coli, ATCC25922, Corning NBS, MH, 50% HS) | MIC (E. coli ATCC 25922; Escherichia coli, ATCC25922, Corning PS plate, MHB +0.002% T80, no further additive) | MIC (E. coli ATCC 25922; Escherichia coli, ATCC25922, Corning PS, MH, 50% HS) | MIC (E. coli ATCC 25922; Escherichia coli, ATCC25922, Corning TC, MH, 2% LS) | MIC (K. pneumoniae ATCC 13883; ATCC13883, Corning NBS, MHB +T80)
> 64 mg/L: MIC (A. baumannii ATCC 19606; ATCC19606, Corning PS, MHB +T80) | MIC (A. baumannii ATCC 19606; ATCC19606, Corning PS, MHB -T80) | MIC (P. aeruginosa ATCC 10145; ATCC10145, Corning NBS, MHB +T80) | MIC (P. aeruginosa ATCC 10145; ATCC10145, Corning NBS, MHB -T80) | MIC (P. aeruginosa ATCC 10145; ATCC10145, Corning PS, MHB +T80) | MIC (P. aeruginosa ATCC 10145; ATCC10145, Corning PS, MHB -T80) | MIC (P. aeruginosa ATCC 10145; ATCC10145, Corning TC, MHB +T80) | MIC (P. aeruginosa ATCC 10145; ATCC10145, Corning TC, MHB -T80)
1 mg/L: MIC (E. coli ATCC 25922; Escherichia coli, ATCC25922, 24 h, Corning NBS, MH + 2% LHB, 2% LS) | MIC (E. coli ATCC 25922; Escherichia coli, ATCC25922, 24 h, Corning NBS, MH + 2% LHB, no additive) | MIC (E. coli ATCC 25922; Escherichia coli, ATCC25922, 24 h, Corning TC, MH + 2% LHB, no additive) | MIC (E. coli ATCC 25922; Escherichia coli, ATCC25922, 24 h, Trek PS, MH + 2% LHB, 50% HS) | MIC (E. coli ATCC 25922; Escherichia coli, ATCC25922, 24 h, Trek PS, MH + 2% LHB, no additive) | MIC (E. coli ATCC 25922; Escherichia coli, ATCC25922, Corning NBS plate, MHB +0.002% T80, no further additive) | MIC (E. coli ATCC 25922; Escherichia coli, ATCC25922, Corning PS, MH, 2% LS) | MIC (E. coli ATCC 25922; Escherichia coli, ATCC25922, Trek PS, MH, 50% HS)
2 to 4 mg/L: MIC (E. coli ATCC 25922; Escherichia coli, ATCC25922, 24 h, Trek PS, MH + T80, 50% HS) | MIC (K. pneumoniae ATCC 13883; ATCC13883, Corning PS, MHB +T80)
2 mg/L: MIC (E. coli ATCC 25922; Escherichia coli, ATCC25922, 24 h, Corning NBS, MH + T80, 2% LS) | MIC (E. coli ATCC 25922; Escherichia coli, ATCC25922, 24 h, Corning NBS, MH + T80, 50% HS) | MIC (E. coli ATCC 25922; Escherichia coli, ATCC25922, 24 h, Trek PS, MH + T80, 2% LS) | MIC (E. coli ATCC 25922; Escherichia coli, ATCC25922, Trek PS plate, MHB +0.002% T80, no further additive)
0.06–0.25 ([72]) µg/ml: MIC (literature) (E. coli)
